These results are taken from the OPERA property sets (Mansouri et al. 2018).

Settings in the first data set: not given
As to `C=CCC1(C(C)CC)C(=O)NC(=O)NC1=O` (stereo not drawn), the melting point (commonly the temperature of the solid-liquid transition) worked out at 109 °C.
Consider `CCOC(=O)[C@H](C)Cl`, for which the boiling point (in general, the temperature at which the vapour pressure of the liquid equals the pressure above it) was 147 °C and the log10 vapour pressure (mmHg) came out at 0.557.
The compound `COc1cc2c(cc1OC)C1CC(=O)C(CC(C)C)CN1CC2` (stereo not drawn) registered a melting point of 128 °C.
`CC(=O)c1ccc(Br)cc1` returned a boiling point of 257 °C and a melting point of 50.5 °C.
In turn, `C=CCOC(=O)OCC=C` returned a boiling point of 142 °C and a log10 vapour pressure (mmHg) of -0.991.
On to `CC(C)CI`, for which the boiling point amounted to 121 °C, the log10 vapour pressure (mmHg) turned out to be 1.19 and the melting point was -93 °C.
Compound `c1cnc2c(c1)CCCC2` gave a boiling point of 222 °C.
As to `CC(C)NCC(O)c1ccc2ccccc2c1` (stereo not drawn), the melting point was 108 °C.
In turn, `C=CC(C)CC` (stereo not drawn) showed a boiling point of 54.2 °C, a log10 vapour pressure (mmHg) of 2.43 and a melting point of -153 °C.
`Clc1ccc(-c2cc(Cl)c(Cl)cc2Cl)cc1Cl`: the log10 Koa was determined as 9.82 and the log10 vapour pressure (mmHg) was -5.05.
With `Clc1cccc2ncccc12`, the boiling point is 256 °C and the melting point came out at 45 °C.
As for `CC1C=CCC1` (stereo not drawn), the boiling point came to 64.9 °C.
On to `N#Cc1ccc(-c2ccc(C#N)cc2)cc1`, for which the melting point was 238 °C.
`CCCCN(CCCC)SN(C)C(=O)Oc1cccc2c1OC(C)(C)C2`: the log10 vapour pressure (mmHg) was -6.51.
As to `COc1ccc(NC(C)=O)cc1N`, the ready biodegradability result was “not readily biodegradable”.
`CC(=O)OC[C@H]1O[C@@](COC(C)=O)(O[C@H]2O[C@H](COC(C)=O)[C@@H](OC(C)=O)[C@H](OC(C)=O)[C@H]2OC(C)=O)[C@@H](OC(C)=O)[C@@H]1OC(C)=O` gave a melting point of 86.5 °C.
On to `CCOCCOCCOC(C)=O`, for which the boiling point came out at 218 °C, the log10 vapour pressure (mmHg) was -1, the melting point was -25 °C and the ready biodegradability entry is on record as “readily biodegradable”.
Regarding `NNC(=O)c1ccc(O)cc1`, the melting point is 265 °C.
In turn, `CC(C)CC(C)C(C)C` (stereo not drawn) had a boiling point of 131 °C, a log10 biodegradation half-life (days) of 0.903, a log10 vapour pressure (mmHg) of 1.07 and a melting point of -128 °C.
In turn, `Oc1c(I)cc(Cl)c2cccnc12` gave a melting point of 178 °C.
Regarding `CC12CCC(C(Br)C1=O)C2(C)C` (stereo not drawn), the boiling point was 274 °C and the melting point stood at 76.5 °C.
For the compound `CCCC(=O)C(C)(C)C`, the boiling point turned out to be 147 °C.
In the case of `CC1=CCC2CC1C2(C)C` (stereo not drawn), the log10 Henry constant (atm·m³/mol) was -0.873, the log10 vapour pressure (mmHg) stood at 0.677 and the ready biodegradability entry is on record as “readily biodegradable”.
Turning to `Cc1ccc2nccc(C)c2c1`, the boiling point amounted to 274 °C and the melting point stood at 22 °C.
As for `c1ccc(C2CCCC2)cc1`, the boiling point turned out to be 219 °C.
For `NC(=O)c1ccc([N+](=O)[O-])cc1Cl`, the melting point came out at 172 °C and the ready biodegradability result is listed as “readily biodegradable”.
Compound `C#CC(C)Cl` (stereo not drawn) came in with a boiling point of 68.5 °C.
Turning to `O=C(N[C@@H](Cc1ccccc1)C(=O)O)OCc1ccccc1`, the melting point is 88.5 °C.
The same measure, in the same setting: as for `O=C(CI)c1ccccc1`, the figure is 34.4 °C.
Still for that read-out and setting: next, `COc1ccccc1CC#N`: 69.8 °C; `CC(COc1ccccc1)N(CCCl)Cc1ccccc1` (stereo not drawn): 39 °C; `COc1cccc2c1C(=O)c1c(O)c3c(c(O)c1C2=O)C[C@@](O)(C(C)=O)C[C@@H]3O[C@H]1C[C@H](N)[C@H](O)[C@H](C)O1`: 208 °C.
The same measure, in the same setting: next, `C[n+]1cc2c3c(ccc2c2ccc4cc5c(cc4c21)OCO5)OCO3`: 266 °C.
Turning to `CCOC(=O)/C=C(C)/C=C/CC(C)CCCC(C)C` (stereo not drawn), the log10 vapour pressure (mmHg) is -3.61.
With `Cc1c(F)cccc1Cl`, the boiling point worked out at 154 °C.
With `CCc1cn([C@H]2C[C@H](O)[C@@H](CO)O2)c(=O)[nH]c1=O`, the melting point is 152 °C.
With `c1ccc2c(c1)ccc1c3ccccc3sc21`, the log10 vapour pressure (mmHg) was -6.94 and the melting point came to 189 °C.
On to `O=C1C(Cl)=C(NC(=O)C(Cl)Cl)C(=O)c2ccccc21`, for which the melting point turned out to be 212 °C.
`CN(CCCN)CCCN` came in with a boiling point of 232 °C.
Consider `COc1ccccc1C=O`, for which the boiling point amounted to 244 °C and the melting point is 37.5 °C.
For the compound `COC(=O)Nc1ccccc1`, the log10 Koc (L/kg) came out at 1.73.
As to `Nc1ccc(F)cc1F`, the boiling point worked out at 170 °C and the melting point was -7.5 °C.
Take `COc1ccc(C(=O)c2coc(S(N)(=O)=O)c2)cc1`: the melting point worked out at 181 °C.
Consider `CC(C)(C)c1cc(Cn2c(=O)n(Cc3cc(C(C)(C)C)c(O)c(C(C)(C)C)c3)c(=O)n(Cc3cc(C(C)(C)C)c(O)c(C(C)(C)C)c3)c2=O)cc(C(C)(C)C)c1O`, for which the ready biodegradability entry is “not readily biodegradable”.
As for `COc1ccc(C[C@H]2c3cc(OC)c(OC)cc3CCN2C)cc1OC`, the melting point stood at 89 °C.
`C=Cc1cccc(C)c1` had a boiling point of 164 °C, a log10 vapour pressure (mmHg) of 0.231 and a melting point of -86.3 °C.
In the case of `NCCNCCO`, the boiling point amounted to 239 °C, the melting point is -38 °C and the ready biodegradability entry is recorded as “not readily biodegradable”.
`COc1ccc2ccc(=O)oc2c1CC=C(C)C` returned a melting point of 83.5 °C.
On to `Fc1c(Cl)c(F)c(Cl)c(F)c1Cl`, for which the boiling point amounted to 198 °C.
Consider `CNC(=O)n1cc(F)c(=O)[nH]c1=O`, for which the melting point worked out at 226 °C.
The compound `N#CC(=O)c1ccccc1` had a boiling point of 206 °C and a melting point of 32.5 °C.
Turning to `CCCOc1ccccc1`, the boiling point worked out at 190 °C and the melting point was -27 °C.
Consider `N#CCCl`, for which the boiling point was found to be 126 °C and the log10 vapour pressure (mmHg) was 1.18.
With `CN(C)C=Nc1c(I)cc(I)c(CCC(=O)O)c1I`, the melting point is 168 °C.
On to `CN(C)CCOCCN(C)C`, for which the ready biodegradability entry was “not readily biodegradable”.
`CC(=O)CCC(C)=O` displayed a boiling point of 194 °C and a melting point of -5.5 °C.
With `FC(F)(F)C(F)(Cl)C(F)(Cl)C(F)(F)F` (stereo not drawn), the boiling point amounted to 63 °C and the melting point was -68 °C.
The compound `CCCCC/C=C\C/C=C\CCCCCCCC(=O)O` showed a boiling point of 365 °C, a log10 vapour pressure (mmHg) of -6.06 and a melting point of -8.5 °C.
`CCCCC(C)=O`: the boiling point worked out at 128 °C, the log10 Koa was 3.68, the log10 vapour pressure (mmHg) turned out to be 1.06 and the melting point was -55.5 °C. Also, the ready biodegradability result is recorded as “not readily biodegradable”.
As for `CC(=O)c1occc1O`, the melting point turned out to be 100 °C.
On the same count and under the same terms, next, `CCCCCCCC/C=C\CCCCCCCCN`: 246 °C.
`C=C(C)C(=C)C`: the boiling point is 68.8 °C, the log10 vapour pressure (mmHg) came to 2.18 and the melting point was -76 °C.
As for `N#Cc1ccccc1OCC(O)CNCCNC(=O)Cc1ccc(O)cc1` (stereo not drawn), the melting point came out at 119 °C.
Turning to `CCCCCCCCCCCCCC[N+](C)(C)Cc1ccccc1`, the ready biodegradability result is “not readily biodegradable”.
With `Brc1cc(Br)c(Br)cc1Br`, the melting point worked out at 182 °C.
`Cc1ccc(O)cc1` registered a boiling point of 202 °C, a log10 Henry constant (atm·m³/mol) of -6, a log10 Koc (L/kg) of 2.7 and a log10 vapour pressure (mmHg) of -0.959. Also, the melting point worked out at 35.5 °C and the ready biodegradability entry was “readily biodegradable”.
Turning to `c1ccc2c(c1)ccc1[nH]c3ccccc3c12`, the boiling point is 448 °C and the melting point came out at 134 °C.
The compound `O=CCCCl` displayed a boiling point of 130 °C.
In the case of `CC1(C)CC=CCC1`, the boiling point is 117 °C and the melting point was -74.4 °C.
Regarding `CNC(=O)COc1ccccc1OCC(O)CNC(C)(C)C` (stereo not drawn), the melting point turned out to be 96.5 °C.

The same data set, now with this note: fish.
Turning to `Clc1ccc(-c2cc(Cl)c(Cl)cc2Cl)cc1Cl`, the log10 biotransformation half-life (days) amounted to 2.19.
In turn, `O=C(O)C1CCCCC1C(=O)O` (stereo not drawn) yielded a log10 BCF of 0.3.
`C=Cc1cccc(C)c1` displayed a log10 BCF of 1.55.
Still for that read-out and setting: as for `NCCNCCO`, the figure is 0.46.
Turning to `Brc1cc(Br)c(Br)cc1Br`, the log10 BCF was 3.59 and the log10 biotransformation half-life (days) is 1.35.
